According to ChEMBL document CHEMBL1158945, “Four Novel Diterpenoids: Clavirolides B, C, D, and E from the Chinese Soft Coral Clavularia viridis” (J Nat Prod, 1991):
Converted amounts (≈) assume the structure as drawn.

How the values were obtained:
[1] = Cytotoxicity against mouse EAC cells; type: functional, cell-based; conditions: Ehrlich
Oryctolagus cuniculus = organism: Oryctolagus cuniculus; assay: Blocked of calcium channel in rabbit smooth muscle; type: tissue-based; conditions: Muscle tissue
[2] = Negative inotropic activity in guinea pig atria muscle at 36 uM; type: functional, Cavia porcellus, Muscle tissue
Heart = assay: Toxicity in isolated guinea pig heart assessed as bradycardia at 45 uM/kg; type: tissue-based, Cavia porcellus; conditions: ex_vivo
Rattus norvegicus = assay: Decrease in blood pressure in rat at 45 uM/kg; type: organism-based

For `CC1=C2CC[C@@]3(C)C/C=C(\C)CC(=O)C[C@@H](C)C[C@@H](OC1=O)[C@H]23` [CLAVIROLIDE B], the IC50 [1] was 21 µg/mL (≈ 66.4 µM) and the pD2 (Oryctolagus cuniculus) was 4.68.
In the case of `CC1=C2CC[C@@]3(C)CC[C@H](C)CC(=O)C[C@@H](C)C[C@@H](OC1=O)[C@H]23` [CLAVIROLIDE C], the Activity [2] is reported as 50%, the Activity (Heart) is reported as 43.7% and the IC50 [1] is reported as 27 µg/mL (≈ 84.8 µM). It also gave an Activity (Rattus norvegicus) of 24 mmHg and a pD2 (Oryctolagus cuniculus) of 5.48.
`CC1=C2CC[C@@]3(C)CC/C(C)=C\C(=O)C[C@@H](C)C[C@@H](OC1=O)[C@H]23` [CLAVIROLIDE D] showed an IC50 [1] of 11.7 µg/mL (≈ 37 µM) and a pD2 (Oryctolagus cuniculus) of 4.79.
With `CC1=C2CC[C@@]3(C)C/C=C(/C)CC(=O)C[C@@H](C)C[C@@H](OC1=O)[C@H]23` [CLAVULACTONE] the IC50 [1] was 8 µg/mL (≈ 25.3 µM).
